Measurements published in patent US7138361B2, “Herbicidal heterocycles” (E. I. du Pont de Nemours and Company, priority 2000, dated 2006).

Columns and labels:
Assay type in all cases: in vivo
[1] = test system: corn (Zea mays); assay: Test C preemergence
How it was run: (§1)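 Herbicidal effect is a visual 0–100 score (100 = complete control) assigned versus untreated plants, 12 to 14 days after spraying in the greenhouse. Test compounds were applied in a non-phytotoxic, surfactant-containing solvent.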

[2] = test system: goosegrass (Eleusine indica); assay: Test C preemergence
How it was run: as §1

[3] = test system: bermudagrass (Cynodon dactylon); assay: Test C preemergence
How it was run: as §1

[4] = test system: cocklebur (Xanthium strumarium); assay: Test C preemergence
How it was run: as §1

[5] = test system: common ragweed (Ambrosia elatior); assay: Test C preemergence
How it was run: as §1

[6] = test system: crabgrass (Digitaria sanguinalis); assay: Test C preemergence
How it was run: as §1

[7] = test system: pigweed (Amaranthus retroflexus); assay: Test C preemergence
How it was run: as §1

[8] = test system: velvetleaf (Abutilon theophrasti); assay: Test C preemergence
How it was run: as §1

[9] = test system: Surinam grass (Brachiaria decumbens); assay: Test C preemergence
How it was run: as §1

[10] = test system: yellow nutsedge (Cyperus esculentus); assay: Test C preemergence
How it was run: as §1

[11] = test system: morningglory (Ipomoea hederacea); assay: Test C preemergence
How it was run: as §1

[12] = test system: lambsquarters (Chenopodium album); assay: Test C preemergence
How it was run: as §1

[13] = test system: Sunflower; assay: Test C preemergence
[14] = test system: woolly cupgrass (Eriochloa villosa); assay: Test C preemergence
How it was run: as §1

[15] = test system: giant foxtail (Setaria faberii); assay: Test C preemergence
How it was run: as §1

[16] = test system: soybean (Glycine max); assay: Test C preemergence
How it was run: as §1

[17] = test system: Nightshade; assay: Test C preemergence
[18] = test system: johnsongrass (Sorghum halepense); assay: Test C preemergence
How it was run: as §1

[19] = test system: Sunflower; assay: Test C preemergence; conditions: Rate 250 g/ha, visual evaluation after 12 to 14 days
[20] = test system: barnyardgrass (Echinochloa crus-galli); assay: Test C flooded paddy test; conditions: for Barnyardgrass plant response rating: Flooded Paddy, scale 0 to 100, 0 no effect, 100 complete control; for Plant response rating, Barnyardgrass: flooded paddy test, scale 0 to 100 (0 no effect, 100 complete control)
How it was run: (§2)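 Visual injury score, 0 (no effect) to 100 (complete control), relative to controls. Paddy plants treated at 2-leaf stage; greenhouse hold 12–14 d before rating.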

[21] = test system: rice (Oryza saliva); assay: Test C flooded paddy test; conditions: for Rice plant response rating: Flooded Paddy, scale 0 to 100, 0 no effect, 100 complete control; for Plant response rating, Rice: flooded paddy test, scale 0 to 100 (0 no effect, 100 complete control)
How it was run: as §2

[22] = Preemergence, Rate 500 g/ha, scale 0 to 100
[23] = Rate 62 g/ha, scale 0 to 100, 0 no effect, 100 complete control
[24] = preemergence, Rate 250 g/ha, visual evaluation after 12 to 14 days
[25] = preemergence, Rate 125 g/ha, scale 0 to 100, 0 no effect, 100 complete control

In the case of CCC(C)c1ccn(C2SCN(c3cccc(OC(F)(F)F)c3)C2=O)n1 (stereo not shown) [Compound 32], the “Plant response rating, Corn” value [1, 22] is reported as 60, the “Plant response rating, Corn” value [1, 23] is reported as 40 and the “Plant response rating (0 to 100), Corn” value [1, 24] is reported as 50. For the same compound, the “Plant response rating, Corn” value [1, 25] was 50, the “Plant response rating, Goosegrass” value [2, 22] was 100 and the “Plant response rating, Goosegrass” value [2, 23] was 100. The “Plant response rating (0 to 100), Goosegrass” value [2, 24] was 100, the “Plant response rating, Goosegrass” value [2, 25] was 100 and the “Plant response rating, Bermudagrass” value [3, 22] was 100. For the same compound, the “Plant response rating, Bermudagrass” value [3, 23] was 50, the “Plant response rating (0 to 100 where 0 is no effect and 100 is complete control), Bermudagrass” value [3, 24] was 100 and the “Plant response rating, Bermudagrass” value [3, 25] was 90. The “Plant response rating, Cocklebur” value [4, 22] was 0, the “Plant response rating, Cocklebur” value [4, 23] was 0 and the “Plant response rating (0 to 100), Cocklebur” value [4, 24] was 0. For the same compound, the “Plant response rating, Ragweed, Common” value [5, 22] was 100, the “Plant response rating, Ragweed, Common” value [5, 23] was 0 and the “Plant response rating (0 to 100), Ragweed, Common” value [5, 24] was 90. For the same compound, the “Plant response rating, Ragweed, Common” value [5, 25] was 0, the “Plant response rating, Crabgrass” value [6, 22] was 100 and the “Plant response rating, Crabgrass” value [6, 23] was 100. The “Plant response rating (0 to 100), Crabgrass” value [6, 24] was 100, the “Plant response rating, Crabgrass” value [6, 25] was 100 and the “Plant response rating, Pigweed” value [7, 22] was 80. The “Plant response rating, Pigweed” value [7, 23] was 70, the “Plant response rating (0 to 100), Pigweed” value [7, 24] was 70 and the “Plant response rating, Pigweed” value [7, 25] was 20. For the same compound, the “Plant response rating, Velvetleaf” value [8, 22] was 40, the “Plant response rating, Velvetleaf” value [8, 23] was 0 and the “Plant response rating (0 to 100), Velvetleaf” value [8, 24] was 0. For the same compound, the “Plant response rating, Velvetleaf” value [8, 25] was 0, the “Plant response rating, Surinam grass” value [9, 22] was 90 and the “Plant response rating, Surinam grass” value [9, 23] was 70. The “Plant response rating (0 to 100), Surinam grass” value [9, 24] was 80, the “Plant response rating, Surinam grass” value [9, 25] was 80 and the “Plant response rating, Nutsedge” value [10, 22] was 60. The “Plant response rating (0 to 100), Nutsedge” value [10, 24] was 50, the “Plant response rating, Nutsedge” value [10, 25] was 50 and the “Plant response rating, Morningglory” value [11, 22] was 80. For the same compound, the “Plant response rating, Morningglory” value [11, 23] was 30, the “Plant response rating (0 to 100), Morningglory” value [11, 24] was 50 and the “Plant response rating, Morningglory” value [11, 25] was 40. For the same compound, the “Plant response rating, Lambsquarters” value [12, 22] was 100, the “Plant response rating, Lambsquarters” value [12, 23] was 100 and the “Plant response rating (0 to 100), Lambsquarters” value [12, 24] was 100. For the same compound, the “Plant response rating, Lambsquarters” value [12, 25] was 100, the “Plant response rating, Sunflower” value [13, 23] was 0 and the “Plant response rating, Sunflower” value ([13]; Rate 500 g/ha, scale 0 to 100) was 70. For the same compound, the “Plant response rating, Cupgrass, Woolly” value [14, 22] was 90, the “Plant response rating, Cupgrass, Woolly” value [14, 23] was 60 and the “Plant response rating (0 to 100), Cupgrass, Woolly” value [14, 24] was 90. For the same compound, the “Plant response rating, Cupgrass, Woolly” value [14, 25] was 70, the “Plant response rating, Foxtail, Giant” value [15, 22] was 100 and the “Plant response rating, Foxtail, Giant” value [15, 23] was 70. For the same compound, the “Plant response rating (0 to 100), Foxtail, Giant” value [15, 24] was 100, the “Plant response rating, Foxtail, Giant” value [15, 25] was 50 and the “Plant response rating, Soybean” value [16, 22] was 60. For the same compound, the “Plant response rating, Soybean” value [16, 23] was 50, the “Plant response rating (0 to 100), Soybean” value [16, 24] was 60 and the “Plant response rating, Soybean” value [16, 25] was 50. The “Plant response rating, Nightshade” value [17, 23] was 50, the “Plant response rating, Nightshade” value ([17]; Rate 125 g/ha, scale 0 to 100, 0 no effect, 100 complete control) was 50 and the “Plant response rating, Nightshade” value ([17]; Rate 500 g/ha, scale 0 to 100) was 100. The “Plant response rating, Johnsongrass” value [18, 22] was 90, the “Plant response rating, Johnsongrass” value [18, 23] was 30 and the “Plant response rating (0 to 100), Johnsongrass” value [18, 24] was 90. For the same compound, the “Plant response rating, Johnsongrass” value [18, 25] was 40, the “Plant response rating (0 to 100), Sunflower” value [19] was 70 and the “Barnyardgrass plant response rating” value ([20]; Rate 250 g/ha) was 100. The “Barnyardgrass plant response rating” value ([20]; Rate 500 g/ha) was 100, the “Plant response rating, Barnyardgrass” value ([20]; Rate 62 g/ha) was 20 and the “Plant response rating, Barnyardgrass” value ([20]; Rate 125 g/ha) was 100. For the same compound, the “Rice plant response rating” value ([21]; Rate 250 g/ha) was 100, the “Rice plant response rating” value ([21]; Rate 500 g/ha) was 100 and the “Plant response rating, Rice” value ([21]; Rate 62 g/ha) was 0. The “Plant response rating, Rice” value ([21]; Rate 125 g/ha) was 30.
